Test results from ChEMBL document CHEMBL4177754, “Targeting Tyrosinase: Development and Structural Insights of Novel Inhibitors Bearing Arylpiperidine and Arylpiperazine Fragments” (J Med Chem, 2018).
Activity calls are given as the source filed them. No cut-off for these calls is given here.

What was measured:
Tyrosinase = target: T1, Tyrosinase (Agaricus bisporus, UniProt O42713); assay: Inhibition of mushroom tyrosinase diphenolase activity using L-DOPA as substrate preincubated with substrate for 10 mins followed by protein addition measured after 5 mins by spectrophotometric method
T1 sequence (O42713 whole entry): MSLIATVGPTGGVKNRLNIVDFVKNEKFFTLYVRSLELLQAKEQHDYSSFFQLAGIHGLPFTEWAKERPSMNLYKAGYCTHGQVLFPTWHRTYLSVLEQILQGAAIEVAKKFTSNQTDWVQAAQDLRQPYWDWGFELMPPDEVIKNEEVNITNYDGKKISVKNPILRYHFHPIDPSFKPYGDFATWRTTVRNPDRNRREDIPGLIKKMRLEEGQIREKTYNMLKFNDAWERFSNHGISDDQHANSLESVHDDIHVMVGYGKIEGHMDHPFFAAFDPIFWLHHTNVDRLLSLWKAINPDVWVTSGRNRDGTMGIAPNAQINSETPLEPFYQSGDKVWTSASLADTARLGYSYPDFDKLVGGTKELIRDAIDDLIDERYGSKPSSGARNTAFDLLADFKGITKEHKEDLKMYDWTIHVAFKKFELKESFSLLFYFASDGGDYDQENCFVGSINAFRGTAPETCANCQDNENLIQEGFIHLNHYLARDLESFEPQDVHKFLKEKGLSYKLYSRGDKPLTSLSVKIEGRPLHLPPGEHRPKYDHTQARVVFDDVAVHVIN

[1] = target: T2, Tyrosinase (Agaricus bisporus) (UniProt O42713); assay: Non-competitive inhibition of mushroom tyrosinase diphenolase activity at 2 to 8 uM using L-DOPA as substrate preincubated with substrate for 30 mins followed by protein addition measured after 5 mins by Lineweaver-Burk double-reciprocal plot analysis
T2 sequence (whole entry): T1 sequence (O42713 whole entry)

SMILES: CCC(=O)N1CCC(Cc2ccc(F)cc2)CC1
- IC50 (Tyrosinase): 24.1 µM

SMILES: O=C(c1ccc(O)cc1)N1CCN(Cc2ccc(F)cc2)CC1
- IC50 (Tyrosinase): 27.4 µM

SMILES: COc1cccc(C(=O)N2CCN(Cc3ccc(F)cc3)CC2)c1
- IC50 (Tyrosinase): 27 µM

SMILES: Fc1ccc(CN2CCNCC2)cc1
- IC50 (Tyrosinase): 85.5 µM

SMILES: Cc1ccc(C(=O)N2CCN(Cc3ccc(F)cc3)CC2)cc1
- IC50 (Tyrosinase): 33.1 µM

SMILES: COc1ccc(C(=O)N2CCN(Cc3ccc(F)cc3)CC2)cc1
- IC50 (Tyrosinase): 9.14 µM

SMILES: O=C(c1cccc(O)c1)N1CCN(Cc2ccc(F)cc2)CC1
- IC50 (Tyrosinase): 12.6 µM

SMILES: COc1ccccc1C(=O)N1CCN(Cc2ccc(F)cc2)CC1
- IC50 (Tyrosinase): 2.03 µM
- inhibition [1]: Active

SMILES: CC(=O)N1CCC(Cc2ccc(F)cc2)CC1
- IC50 (Tyrosinase): 25.1 µM

SMILES: Cc1cccc(C(=O)N2CCN(Cc3ccc(F)cc3)CC2)c1
- IC50 (Tyrosinase): 174 µM

SMILES: O=C(c1ccccc1)N1CCN(Cc2ccc(F)cc2)CC1
- IC50 (Tyrosinase): 13.3 µM

SMILES: CC(=O)N1CCN(Cc2ccc(F)cc2)CC1
- IC50 (Tyrosinase): 45.9 µM

SMILES: CC(C)C(=O)N1CCN(Cc2ccc(F)cc2)CC1
- IC50 (Tyrosinase): 30.9 µM

SMILES: Cc1ccccc1C(=O)N1CCN(Cc2ccc(F)cc2)CC1
- IC50 (Tyrosinase): 5.25 µM

SMILES: O=C(c1ccccc1O)N1CCN(Cc2ccc(F)cc2)CC1
- IC50 (Tyrosinase): 7.06 µM

SMILES: O=C(c1cccc(F)c1)N1CCN(Cc2ccc(F)cc2)CC1
- IC50 (Tyrosinase): 54.7 µM

SMILES: O=C(c1ccccc1)N1CCC(Cc2ccc(F)cc2)CC1
- IC50 (Tyrosinase): 19.5 µM

SMILES: O=C(c1ccc(F)cc1)N1CCN(Cc2ccc(F)cc2)CC1
- IC50 (Tyrosinase): 7.77 µM

SMILES: CC(C)C(=O)N1CCC(Cc2ccc(F)cc2)CC1
- IC50 (Tyrosinase): 35.3 µM

SMILES: CCC(=O)N1CCN(Cc2ccc(F)cc2)CC1
- IC50 (Tyrosinase): 51.1 µM

SMILES: O=C(c1ccccc1F)N1CCN(Cc2ccc(F)cc2)CC1
- IC50 (Tyrosinase): 3.75 µM
